Experimental data as given in publication PMC2225448 (Structure(London, England:1993), 2007).
pKd: −log10 of the molar value.

Target: T1, SOCS4/ElonginBC (Homo sapiens, UniProt Q15369+Q15370+Q8WXH5)
T1 construct: Human SOCS4 (amino acids 274–437); made in house; host or cells: E. coli BL21(DE3)
Experiment: ITC binding of phosphotyrosine peptides to SOCS4/ElonginBC
Conditions: 50 mM HEPES pH 7.5, 150 mM NaCl, 1 mM DTT, 20°C; for KB × 10^5: association constant, ± curve fitting error

[1] = 0.3–0.4 mM peptide injected into 15 μM protein, single binding site model

T1 sequence (Q8WXH5 274-437): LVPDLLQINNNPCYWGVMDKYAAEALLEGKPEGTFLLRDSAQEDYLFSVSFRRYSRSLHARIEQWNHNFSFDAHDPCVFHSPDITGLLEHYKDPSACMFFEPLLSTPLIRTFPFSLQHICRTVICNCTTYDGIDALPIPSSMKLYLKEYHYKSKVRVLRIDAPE
T1 sequence (Q15369 17-112 partner limits assumed): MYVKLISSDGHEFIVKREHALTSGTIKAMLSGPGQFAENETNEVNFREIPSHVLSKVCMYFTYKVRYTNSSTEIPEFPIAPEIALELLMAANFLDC
T1 sequence (Q15370 whole entry partner, the tested form may be a part): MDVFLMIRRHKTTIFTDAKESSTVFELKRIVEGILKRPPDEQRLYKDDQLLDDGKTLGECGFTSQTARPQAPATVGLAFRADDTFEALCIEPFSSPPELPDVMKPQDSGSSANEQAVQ
Excerpt: Blank titrations were subtracted from binding data, and data were processed by using ORIGIN software provided with the instrument.

Row | KB × 10^5 | KD [1] | pKd [1] | Compound
1 | 1.30 ± 0.16 10^5 M^−1 |  |  | CC[C@H](C)[C@H](NC(=O)[C@@H](NC(=O)[C@H](Cc1ccc(OP(=O)(O)O)cc1)NC(=O)[C@H](CCC(=O)O)NC(=O)[C@H](Cc1ccccc1)NC(=O)[C@H](CO)NC(=O)[C@H](C)N)[C@@H](C)O)C(=O)N[C@@H](CC(C)C)C(=O)N[C@@H](CC(=O)O)C(=O)N1CCC[C@H]1C(=O)N[C@@H](CO)C(=O)O [EpoR pY402]
2 | 3.43 ± 0.24 10^5 M^−1 |  |  | CC[C@H](C)[C@H](NC(=O)[C@H](Cc1ccc(O)cc1)NC(=O)[C@@H](NC(=O)[C@H](Cc1ccc(OP(=O)(O)O)cc1)NC(=O)[C@H](CC(N)=O)NC(=O)[C@H](CC(N)=O)NC(=O)CNC(=O)[C@@H](N)CC(N)=O)C(C)C)C(=O)N[C@@H](CC(=O)O)C(=O)N1CCC[C@H]1C(=O)N[C@H](C(=O)O)[C@@H](C)O [KIT pY568]
3 | 3.43 ± 0.25 10^5 M^−1 | low micromolar | > 5.52 | CC(C)[C@H](NC(=O)[C@H](CCCCN)NC(=O)[C@H](Cc1ccc(O)cc1)NC(=O)[C@H](Cc1ccc(OP(=O)(O)O)cc1)NC(=O)[C@H](CCC(=O)O)NC(=O)[C@H](CCCCN)NC(=O)[C@H](CC(=O)O)NC(=O)[C@@H](N)CCC(N)=O)C(=O)N[C@@H](CCCCN)C(=O)N[C@@H](CCC(=O)O)C(=O)N1CCC[C@H]1C(=O)NCC(=O)O [JAK2 pY1007]
